We go through 29 molecules from patent US11396517B1, “Exo-aza spiro inhibitors of menin-MLL interaction” (Janssen Pharmaceutica NV, priority 2017, dated 2022).

One assay has as its target T1, menin (Homo sapiens, UniProt O00255, T541A).
T1 construct: Menin (a.a. 1-610-6×his tag)
T1 sequence (O00255 with tags, fused parts or gaps T541A): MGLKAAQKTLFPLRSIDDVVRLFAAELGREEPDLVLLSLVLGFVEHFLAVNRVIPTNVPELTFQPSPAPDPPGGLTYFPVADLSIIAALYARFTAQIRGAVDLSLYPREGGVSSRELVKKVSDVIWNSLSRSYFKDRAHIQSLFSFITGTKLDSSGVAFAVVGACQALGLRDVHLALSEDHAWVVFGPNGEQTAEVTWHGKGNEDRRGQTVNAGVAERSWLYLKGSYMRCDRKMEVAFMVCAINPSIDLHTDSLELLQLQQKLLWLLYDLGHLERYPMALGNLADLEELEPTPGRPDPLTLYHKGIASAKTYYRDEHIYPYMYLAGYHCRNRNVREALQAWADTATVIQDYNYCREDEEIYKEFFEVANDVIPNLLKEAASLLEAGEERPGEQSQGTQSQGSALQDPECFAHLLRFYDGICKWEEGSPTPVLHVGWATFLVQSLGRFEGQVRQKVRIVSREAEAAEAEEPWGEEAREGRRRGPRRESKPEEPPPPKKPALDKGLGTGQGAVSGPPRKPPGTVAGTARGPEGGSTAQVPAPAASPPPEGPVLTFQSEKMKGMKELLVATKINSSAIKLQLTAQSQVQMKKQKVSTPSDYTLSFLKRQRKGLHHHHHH
The assay can be described thus: Menin/MLL homogenous time-resolved fluorescence (HTRF) assay. Type of assay: binding. In outline: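 Displacement of 75 nM FITC-MBM1 from terbium-cryptate-labeled His-tagged menin 1-610 ([…]) was read as the 520/490 nm HTRF ratio. Compound (11-point, 3-fold series) got 5 min with menin before peptide, then 15 min at ambient; 0.5% DMSO, Tris pH 7.5.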
A general note: Time-resolved FRET reads energy transfer from a long-lived donor to a nearby acceptor.

A further assay concerns MOLM14. Briefly: Proliferation assay B (spheroid assay) MOLM14. The class given is cell-based, human. The conditions noted are these: MOLM14 cells, confluence at day 8, absolute IC50, read-out: (3b) Spheroid assay MOLM14 (IC50(μM)) Assay B. The method, then:
3b) Proliferation Assay B
The anti-proliferative effect of menin/MLL protein/protein interaction inhibitor test compounds was assessed in human leukemia cell lines. The cell lines MV-4-11 and MOLM14 harbor MILL translocations and express the MILL fusion proteins MLL-AF4 and MLL-AF9, respectively, as well as the wildtype protein from the second allele. […] K562 was used as a control cell line containing two MLL wildtype alleles in order to exclude compounds that display general cytotoxic effects.
MV-4-11 and MOLM14 were cultured in RPMI-1640 (Sigma Aldrich) supplemented with 10% fetal bovine serum (HyClone), 2 mM L-glutamine (Sigma Aldrich) and 50 μg/ml gentamycin (Gibco). K562 were propagated in RPMI-1640 (Sigma Aldrich) supplemented with 20% fetal bovine serum (HyClone), 2 mM L-glutamine (Sigma Aldrich) and 50 μg/ml gentamycin (Gibco).
In order to assess the anti-proliferative effects, 1,500 MV-4-11, 300 MOLM14 cells or 750 K562 cells were seeded in 200 μl media per well in 96-well round bottom, ultra-low attachment plates (Costar, catalogue number 7007). Cell seeding numbers were chosen based on growth curves to ensure linear growth throughout the experiment. Test compounds were added at different concentrations and the DMSO content was normalized to 0.3%. Cells were incubated for 8 d at 37° C. and 5% CO2. Spheroid like growth was measured in real-time by live-cell imaging (IncuCyteZOOM, Essenbio, 4× objective) acquiring images at day 8. Confluence (%) as a measure of spheroid size was determined using an integrated analysis tool.
In order to determine the effect of the test compounds over time, the confluence in each well as a measure of spheroid size, was calculated. Confluence […] at the beginning of the experiment (t=0) was used as baseline for the calculation.
Absolute IC50 values were calculated as percent change in confluence as follows:
LC=Low Control: cells treated with 1 μM of the cytotoxic agent staurosporin
HC=High Control: Mean confluence (%) (DMSO treated cells) % Effect=100−(100*(Sample−LC)/(HC−LC))
To determine the IC50 a curve is fitted to the plot of % Effect vs Log 10 compound concentration using a sigmoidal fit with a variable slope and fixing the maximum to 100% and the minimum to 0%.

Where [1] appears, read: location 2, read-out: (2) location 2 Menin HTRF assay (IC50 (nM)).
[2] abbreviates: location 1, read-out: (2) location 1 Menin HTRF assay (IC50 (nM)).

Each structure is given as a SMILES string. Like-named read-outs stand apart in the source and are kept apart here.

With `O=S(=O)(c1ccc(NC2CC3(CCN(c4ncnc5sc(CC(F)(F)F)cc45)C3)C2)cc1)N1CCOCC1` (single isomer, unassigned) [Compound 219], the IC50 at menin (setting [1]) came out at 2.6 nM; in the assay with MOLM14 (Homo sapiens, MOLM-14, 192 h) it was 2.4 µM.

Take `CNC(=O)c1ccc(NC2CC3(CCN(c4ncnc5sc(CC(F)(F)F)cc45)C3)C2)c(F)c1F` (single isomer, unassigned) [Compound 227]: the concentration for half-maximal inhibition (IC50) at menin (setting [1]) was 80.2 nM; in the assay with MOLM14, greater than 3.75 µM.

For the molecule `CNC(=O)c1cc(F)c(NC2CC3(CCN(c4ncnc5sc(CC(F)(F)F)cc45)C3)C2)c(F)c1` (single isomer, unassigned) [Compound 228], the values for the IC50 at menin (setting [1]) and in the assay on MOLM14 were 84.2 nM and greater than 3.75 µM, respectively.

With `CNC(=O)c1cc(F)c(NC2CC3(CCN(c4ncnc5sc(CC(F)(F)F)cc45)C3)C2)c(F)c1` (single isomer, unassigned) [Compound 229], the IC50 was 0.9 nM on menin (setting [1]) and 1 µM with MOLM14.

Regarding `CNC(=O)c1ccc(NC2CC3(CCN(c4ncnc5sc(CC(F)(F)F)cc45)C3)C2)cc1C1CCN(C)CC1` (single isomer, unassigned) [Compound 230], the IC50 at menin (setting [1]) is 489 nM; in the assay with MOLM14 (Homo sapiens, MOLM-14, 192 h) it was greater than 3.75 µM.

Take `CN1CCC(c2cc(NC3CC4(CCN(c5ncnc6sc(CC(F)(F)F)cc56)C4)C3)ccc2C(=O)N2CCOCC2)CC1` (single isomer, unassigned) [Compound 232]: the IC50 is 667 nM on menin (setting [1]) and greater than 3.75 µM with MOLM14 (Homo sapiens, MOLM-14, 192 h).

As to `CC(C#N)(C#N)c1ccc(NC2CC3(CCN(c4ncnc5sc(CC(F)(F)F)cc45)C3)C2)cc1` (single isomer, unassigned) [Compound 234], the figures for the IC50 on menin (setting [1]) and with MOLM14 were 116 nM and greater than 3.75 µM, respectively.

On to `CC(C#N)(C#N)c1ccc(NC2CC3(CCN(c4ncnc5sc(CC(F)(F)F)cc45)C3)C2)cc1` (single isomer, unassigned) [Compound 235], for which the IC50 is 4.1 nM on menin (setting [1]) and 1.53 µM in the assay with MOLM14.

Regarding `CN(C)CCNC(=O)c1ccc(NC2CC3(CCN(c4ncnc5sc(CC(F)(F)F)cc45)C3)C2)c(F)c1` (single isomer, unassigned) [Compound 242], the IC50 was 74.6 nM at menin (setting [1]) and greater than 3.75 µM in the assay on MOLM14.

For `CN(C)CCNC(=O)c1ccc(NC2CC3(CCN(c4ncnc5sc(CC(F)(F)F)cc45)C3)C2)c(F)c1` (single isomer, unassigned) [Compound 243], the values for the IC50 on menin (setting [1]) and in the assay on MOLM14 were 2.9 nM and 1.11 µM, respectively.

For `CNC(=O)c1c(F)cc(NC2CC3(CCN(c4ncnc5sc(CC(F)(F)F)cc45)C3)C2)cc1F` (single isomer, unassigned) [Compound 245], the IC50 was 7.7 nM at menin (setting [1]) and greater than 3.75 µM with MOLM14 (Homo sapiens, MOLM-14, 192 h).

For `CN(C)CCNC(=O)c1ccc(NC2CC3(CCN(c4ncnc5sc(CC(F)(F)F)cc45)C3)C2)nc1` (single isomer, unassigned) [Compound 253], the figures for the IC50 at menin (setting [1]) and in the assay with MOLM14 were 235 nM and greater than 3.75 µM, respectively.

As to `O=C(c1cnc(NC2CC3(CCN(c4ncnc5sc(CC(F)(F)F)cc45)C3)C2)nc1)N1CCOCC1` (single isomer, unassigned) [Compound 258], the IC50 on menin (setting [1]) is 108 nM; with MOLM14 (Homo sapiens, MOLM-14, 192 h), greater than 3.75 µM.

With `FC(F)(F)Cc1cc2c(N3CC4(CC[C@H](Nc5ccc(-c6cn[nH]c6)cc5)C4)C3)ncnc2s1` (single isomer, unassigned) [Compound 304], the IC50 is 17.3 nM at menin (setting [1]) and greater than 3.75 µM in the assay on MOLM14 (Homo sapiens, MOLM-14, 192 h).

As for `CC(=O)Nc1ccc(NC2CC3(CCN(c4ncnc5sc(CC(F)(F)F)cc45)C3)C2)cc1` (single isomer, unassigned) [Compound 331], the IC50 was found to be 3.4 nM at menin (setting [1]) and 3.38 µM in the assay on MOLM14 (Homo sapiens, MOLM-14, 192 h).

With `O=C(c1ccc(NC2CC3(CCN(c4ncnc5sc(CC(F)(F)F)cc45)C3)C2)c(F)c1)N1CCOCC1` (single isomer, unassigned) [Compound 352], the IC50 at menin (setting [1]) was 139 nM; in the assay on MOLM14, greater than 3.75 µM.

On to `O=C(c1ccc(NC2CC3(CCN(c4ncnc5sc(CC(F)(F)F)cc45)C3)C2)c(F)c1)N1CCOCC1` (single isomer, unassigned) [Compound 353], for which the IC50 was 17.3 nM on menin (setting [1]) and greater than 3.75 µM in the assay with MOLM14 (Homo sapiens, MOLM-14, 192 h).

For `CNC(=O)Cn1cc(NC2CC3(CCN(c4ncnc5sc(CC(F)(F)F)cc45)C3)C2)cn1` (single isomer, unassigned) [Compound 355], the IC50 at menin (setting [1]) was 1460 nM; in the assay on MOLM14 (Homo sapiens, MOLM-14, 192 h), greater than 3.75 µM.

Take `CNC(=O)Cn1cc(NC2CC3(CCN(c4ncnc5sc(CC(F)(F)F)cc45)C3)C2)cn1` (single isomer, unassigned) [Compound 356]: the IC50 is 2680 nM at menin (setting [1]) and greater than 3.75 µM in the assay with MOLM14.

In the case of `N#CCn1c(=O)[nH]c2cc(NC3CC4(CCN(c5ncnc6sc(CC(F)(F)F)cc56)C4)C3)ccc21` (single isomer, unassigned) [Compound 357], the IC50 on menin (setting [1]) is 3.1 nM; in the assay on MOLM14 (Homo sapiens, MOLM-14, 192 h), greater than 3.75 µM.

Consider `N#CCn1c(=O)[nH]c2cc(NC3CC4(CCN(c5ncnc6sc(CC(F)(F)F)cc56)C4)C3)ccc21` (single isomer, unassigned) [Compound 358], for which the values for the IC50 on menin (setting [1]) and in the assay with MOLM14 were 5.3 nM and 3.5 µM, respectively.

Turning to `NC(=O)Cn1c(=O)[nH]c2cc(NC3CC4(CCN(c5ncnc6sc(CC(F)(F)F)cc56)C4)C3)ccc21` (single isomer, unassigned) [Compound 359], the IC50 at menin (setting [1]) is 16.2 nM; in the assay on MOLM14 (Homo sapiens, MOLM-14, 192 h), greater than 3.75 µM.

`NC(=O)Cn1c(=O)[nH]c2cc(NC3CC4(CCN(c5ncnc6sc(CC(F)(F)F)cc56)C4)C3)ccc21` (single isomer, unassigned) [Compound 360]: the values for the IC50 on menin (setting [1]) and in the assay on MOLM14 were 448 nM and greater than 3.75 µM, respectively.

`CN(C(=O)c1ccc(NC2CC3(CCN(c4ncnc5sc(CC(F)(F)F)cc45)C3)C2)cc1)S(C)(=O)=O` (single isomer, unassigned) [Compound 363]: the IC50 on menin (setting [2]) came out at 44.1 nM; at menin (setting [1]), 46 nM; with MOLM14 (Homo sapiens, MOLM-14, 192 h), 2.1 µM.

As to `CN(C(=O)c1ccc(NC2CC3(CCN(c4ncnc5sc(CC(F)(F)F)cc45)C3)C2)cc1)S(C)(=O)=O` (single isomer, unassigned) [Compound 364], the IC50 was found to be 0.8 nM on menin (setting [2]), 1.3 nM on menin (setting [1]) and 1.1 µM in the assay on MOLM14.

For the molecule `CS(=O)(=O)NCc1ccc(NC2CC3(CCN(c4ncnc5sc(CC(F)(F)F)cc45)C3)C2)cc1` (single isomer, unassigned) [Compound 367], the IC50 is 63.6 nM at menin (setting [1]) and greater than 3.75 µM in the assay with MOLM14 (Homo sapiens, MOLM-14, 192 h).

As for `CS(=O)(=O)NCc1ccc(NC2CC3(CCN(c4ncnc5sc(CC(F)(F)F)cc45)C3)C2)cc1` (single isomer, unassigned) [Compound 368], the results for the IC50 at menin (setting [1]) and with MOLM14 were 2.9 nM and 2.61 µM, respectively.

As for `N#CCc1ccc(NC2CC3(CCN(c4nc(N)nc5sc(CC(F)(F)F)cc45)C3)C2)cc1` (single isomer, unassigned) [Compound 379], the IC50 at menin (setting [1]) was 1.4 nM; in the assay on MOLM14 (Homo sapiens, MOLM-14, 192 h), greater than 3.75 µM.

Regarding `Nc1nc(N2CCC3(CC(Nc4ccc5[nH]c(=O)[nH]c5c4)C3)C2)c2cc(CC(F)(F)F)sc2n1` (single isomer, unassigned) [Compound 382], the IC50 is 27.9 nM on menin (setting [1]) and greater than 3.75 µM in the assay on MOLM14 (Homo sapiens, MOLM-14, 192 h).

By IC50 is commonly meant the concentration that inhibits the measured activity by half.
